Measured values published in patent US20100130620A1, “NOVEL USE OF HYDROXYTYROSOL AND OLIVE EXTRACTS/CONCENTRATES CONTAINING IT” (priority 2007, published 2010).

Key:
[1] = test system: ARPE-19 cells; assay: JC-1 assay for mitochondrial membrane potential; assay type: cell-based, human; details: 10-100 μM HTS, no acrolein
Method: (§1) The human ARPE-19 cells (a human retinal pigment epithelial cell-line) were maintained in DMEM-F12 medium (Dulbecco's modified Eagle's medium) supplemented with 10% fetal bovine serum, 0.348% sodium bicarbonate, 2 mM L-glutamine, 100 U/mL penicillin and 100 μg/ml streptomycin. Cell cultures were maintained at 37° C. in a humidified atmosphere of 95% air and 5% CO2. The medium was changed every 3 to 4 days. ARPE-19 cells were used within 10 generations.
All experiments were performed with an 80% confluence monolayer grown in 96-well plates or 6 well plates. Hydroxytyrosol (HTS) was dissolved in DMSO (dimethyl sulfoxide). Acrolein was dissolved in PBS (phosphate buffer salt) each time immediately before an experiment. For the acute toxicity study, cells were exposed to acrolein for 24 hours. […]
Mitochondrial potential change (ΔΨ) was assessed in live APRE-19 cells using the lipophilic cationic probe 5,5′,6,6′-tetrachloro-1,1′,3,3′-tetraethylbenzimidazol-carbocyanine iodine (JC-1). For quantitative fluorescence measurement, cells were rinsed once after JC-1 staining and scanned with a multi-label counter (Wallac 1420; PerkinElmer Life Sciences, Wellesley, Mass.) at 485 nm excitation and 535 nm and 590 nm emission, to measure green and red JC-1 fluorescence respectively. […]

[2] = test system: human ARPE-19 cells; assay type: cell-based
Method: as §1
All experiments were performed with an 80% confluence monolayer grown in 96-well plates or 6 well plates. Hydroxytyrosol (HTS) was dissolved in DMSO (dimethyl sulfoxide). Acrolein was dissolved in PBS (phosphate buffer salt) each time immediately before an experiment. For the acute toxicity study, cells were exposed to acrolein for 24 hours. The protective effects of HTS (Hydroxytyrosol) were studied with the acute toxicity model by pre-treating cells with HTS for 48 hours or for 7 days.
The MTT assay reduction assay was used as a […] index of cell viability. The optical densities were read at 555 nm using a microplate spectrophotometer (Spectra Max 340, Molecular Dabices, Sunnyvale, Calif.). Absorbance values were normalized with untreated cells to calculate the changes in cell viability.
The ARPE-19 cells were seeded at 4×10^4 per well in a 96 well plate. […]

OCCc1ccc(O)c(O)c1 [HTS, 3,4-dihydroxyphenyl ethanol]
effect of HTS itself on mitochondrial membrane potential [1]: no apparent effect on mitochondrial membrane potential
effect of HTS itself on cell viability ([2]; 10-100 μM HTS, ARPE-19, no acrolein, FIG. 1): no apparent effect on cell viability
HTS concentration range protecting against acute acrolein-induced decrease in cell viability ([2]; pretreatment, 75 μM acrolein 24 hours): 10 to 20 µM
